Target: T1, human CXCR3 (N-delta 4) (Homo sapiens, UniProt P49682)
T1 construct: CD8 leader; Flag tag; expressed in transfected cells; membranes used
T1 sequence (P49682 5-368 limits assumed): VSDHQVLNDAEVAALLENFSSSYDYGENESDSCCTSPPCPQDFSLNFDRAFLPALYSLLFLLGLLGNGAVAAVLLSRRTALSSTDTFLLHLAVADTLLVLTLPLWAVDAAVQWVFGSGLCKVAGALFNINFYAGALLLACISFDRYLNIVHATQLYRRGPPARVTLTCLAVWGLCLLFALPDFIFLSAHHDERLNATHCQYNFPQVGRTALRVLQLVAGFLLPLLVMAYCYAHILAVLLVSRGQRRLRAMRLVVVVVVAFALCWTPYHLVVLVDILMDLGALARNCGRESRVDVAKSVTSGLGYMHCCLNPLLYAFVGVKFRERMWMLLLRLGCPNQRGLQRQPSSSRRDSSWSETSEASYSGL
Test: Human CXCR3 (N-delta 4) scintillation proximity assay (SPA), [125I] IP-10 binding
Details: IC50 rating; Ba/F3-hCXCR3 (N-delta 4) membranes, 25 pM [125I] IP-10
Description: The inventive compounds can readily be evaluated to determine activity at the CXCR3 receptors by known methods, such as, for example, development of a human CXCR3 (N-delta 4) Binding Assay.
Cloning and expression of human CXCR3 (N-delta 4):
The DNA encoding human CXCR3 was cloned by PCR using human genomic DNA (Promega, Madison, Wis.) as a template. The PCR primers were designed based on the published sequence of human orphan receptor GPR9 (1) with incorporated restriction sites, a Kozak consensus sequence, CD8 leader and Flag tag. The PCR product was subcloned into the mammalian expression vector pME18Sneo, a derivative of the SR-alpha expression vector (designated as pME18Sneo-hCXCR3 (N-delta 4).
IL-3-dependent mouse pro-B cells Ba/F3 were transfected by electroporation in 0.4 ml Dulbecco's PBS containing 4×10^6 cells with 20 μg of pME18Sneo-hCXCR3 (N-delta 4) plasmid DNA. Cells were pulsed at 400 Volts, 100 OHMs, 960 μFd. The transfected cells were under selection with 1 mg/ml G418 (Life Technologies, Gaithersburg, Md.). […] IP-10 (NEN Life Science Products, Boston, Mass.).
Preparation of Ba/F3-hCXCR3 (N-delta 4) membranes:
Ba/F3 cells expressing human CXCR3 (N-delta 4) were pelleted and resuspended in the lysis buffer containing 10 mM HEPES, pH 7.5 and Complete® protease inhibitors (1 tablet per 100 ml) (Boehringer Mannheim, Indianapolis, Ind.) at a cell density of 20×10^6 cells per ml. […] Large cellular debris was removed by centrifugation at 1,000×g. Cell membrane in the supernatant was sedimented at 100,000×g. The membrane was resuspended in the lysis buffer supplemented with 10% sucrose and stored at −80° C. Total protein concentration of the membrane was determined by BCA method from Pierce (Rockford, Ill.).
Human CXCR3 (N-delta 4) scintillation proximity assay (SPA):
The beads were spun down, washed once, resuspended in the binding buffer and transferred to a 96-well Isoplate (Wallac, Gaithersburg, Md.). […] IP-10 with tested compounds in a series of titration were added to start the reaction.

IC50, 0.025 to 0.1 µM:
O=C(NCc1ccc(Cl)cc1F)c1cnc(N2CCN(C3CCN(Cc4ccc(Br)cc4)CC3)CC2)c(Cl)c1 [compound 105]
O=C(NCc1ccc(F)cc1)c1cnc(N2CCN(C3CCN(Cc4ccc(F)c(F)c4)CC3)CC2)c(Cl)c1 [compound 106]
N#Cc1ccc(CN2CCC(N3CCN(c4ncc(C(=O)NCc5ccc(F)c(Cl)c5)cc4Cl)CC3)CC2)cc1 [compound 107]
O=C(NCc1ccc(F)c(Cl)c1)c1cnc(N2CCN(C3CCN(Cc4ccc(Br)cc4)CC3)CC2)c(Cl)c1 [compound 108]
O=C(NCc1ccc(Br)cc1)c1cnc(N2CCN(C3CCN(Cc4ccc(F)cc4)CC3)CC2)c(Cl)c1 [compound 109]
COc1ccc(CN2CCC(N3CCN(c4ncc(C(=O)NCc5ccc(Cl)cc5F)cc4Cl)CC3)CC2)cc1 [compound 111]
O=C(NCCOc1ccccc1)c1cnc(N2CCN(C3CCN(Cc4ccc([N+](=O)[O-])cc4)CC3)CC2)c(Cl)c1 [compound 112]
O=C(NCc1ccc(F)cc1)c1cnc(N2CCN(C3CCN(Cc4ccc(Br)cc4)CC3)CC2)c(Cl)c1 [compound 113]
N#Cc1ccc(CN2CCC(N3CCN(c4ncc(C(=O)NCc5ccc(Br)cc5)cc4Cl)CC3)CC2)cc1 [compound 114]
O=C(NCc1ccc(Cl)c(Cl)c1)c1cnc(N2CCN(C3CCN(Cc4ccc(Cl)c(F)c4)CC3)CC2)c(Cl)c1 [compound 115]
COc1ccc(CN2CCC(N3CCN(c4ncc(C(=O)NCc5ccc(F)c(F)c5)cc4Cl)CC3)CC2)cc1 [compound 116]
COc1ccc(CN2CCC(N3CCN(c4ncc(C(=O)NCc5ccc(F)c(Cl)c5)cc4Cl)CC3)CC2)cc1 [compound 117]
O=C(NCc1cccc(Cl)c1)c1cnc(N2CCN(C3CCN(Cc4ccc(F)c(F)c4)CC3)CC2)c(Cl)c1 [compound 118]
O=C(NCc1ccc(Cl)cc1Cl)c1cnc(N2CCN(C3CCN(Cc4ccc(F)cc4)CC3)CC2)c(Cl)c1 [compound 119]
N#Cc1ccc(CN2CCC(N3CCN(c4ncc(C(=O)NCc5ccc(Cl)cc5F)cc4Cl)CC3)CC2)cc1 [compound 120]
O=C(NCc1ccc(F)c(F)c1)c1cnc(N2CCN(C3CCN(Cc4ccc(Cl)c(F)c4)CC3)CC2)c(Cl)c1 [compound 121]
CC1CN(C2CCN(Cc3ccc(Cl)cc3)CC2)CCN1c1ncc(C(=O)NCc2ccc(Cl)c(Cl)c2)cc1Cl (stereo not drawn) [compound 122]
O=C(NCCOc1ccccc1)c1cnc(N2CCN(C3CCN(Cc4ccc(Cl)c(F)c4)CC3)CC2)c(Cl)c1 [compound 123]
COc1ccc(CN2CCC(N3CCN(c4ncc(C(=O)NCc5ccc(Cl)c(Cl)c5)cc4Cl)CC3)CC2)cc1 [compound 124]
O=C(NCc1ccc(Cl)cc1F)c1cnc(N2CCN(C3CCN(Cc4ccc(Cl)cc4)CC3)CC2)c(Cl)c1 [compound 125]
N#Cc1ccc(CN2CCC(N3CCN(c4ncc(C(=O)NCc5ccc(Cl)cc5)cc4Cl)CC3)CC2)cc1 [compound 126]
O=C(NCc1ccc(F)cc1F)c1cnc(N2CCN(C3CCN(Cc4ccc(Cl)c(F)c4)CC3)CC2)c(Cl)c1 [compound 127]
O=C(NCc1ccc(F)cc1F)c1cnc(N2CCN(C3CCN(Cc4ccc([N+](=O)[O-])cc4)CC3)CC2)c(Cl)c1 [compound 128]
N#Cc1ccc(CN2CCC(N3CCN(c4ncc(C(=O)NCc5ccc(F)c(F)c5)cc4Cl)CC3)CC2)cc1 [compound 129]
CC1CN(C2CCN(Cc3ccc(Cl)cc3)CC2)CCN1c1ncc(C(=O)NCCOc2ccccc2)cc1Cl (stereo not drawn) [compound 130]
O=C(NCc1ccc(Br)cc1)c1cnc(N2CCN(C3CCN(Cc4ccc([N+](=O)[O-])cc4)CC3)CC2)c(Cl)c1 [compound 131]
O=C(NCc1ccc(F)cc1F)c1cnc(N2CCN(C3CCN(Cc4ccc(F)c(F)c4)CC3)CC2)c(Cl)c1 [compound 132]
O=C(NCc1ccc(Cl)cc1Cl)c1cnc(N2CCN(C3CCN(Cc4ccc(Cl)c(F)c4)CC3)CC2)c(Cl)c1 [compound 133]
O=C(NCc1ccc(Cl)cc1F)c1cnc(N2CCN(C3CCN(Cc4ccc(F)cc4)CC3)CC2)c(Cl)c1 [compound 134]
O=C(NCc1ccc(Cl)c(Cl)c1)c1cnc(N2CCN(C3CCN(Cc4ccc(F)cc4)CC3)CC2)c(Cl)c1 [compound 135]
O=C(NCc1ccc(Br)cc1)c1cnc(N2CCN(C3CCN(Cc4ccc(Cl)cc4)CC3)CC2)c(Cl)c1 [compound 136]
COc1ccc(CN2CCC(N3CCN(c4ncc(C(=O)NCc5ccc(Br)cc5)cc4Cl)CC3)CC2)cc1 [compound 137]
CNC(=O)c1cnc(N2CCN(C3CCN(Cc4ccc(Cl)cc4)CC3)CC2C)c(Cl)c1 (stereo not drawn) [compound 138]
O=C(NCc1ccc(F)cc1)c1cnc(N2CCN(C3CCN(Cc4ccc(Cl)c(F)c4)CC3)CC2)c(Cl)c1 [compound 139]
O=C(NCc1ccc(Cl)cc1F)c1cnc(N2CCN(C3CCN(Cc4ccc(F)c(F)c4)CC3)CC2)c(Cl)c1 [compound 140]
O=C(NCc1ccc(Cl)cc1Cl)c1cnc(N2CCN(C3CCN(Cc4ccc(F)c(F)c4)CC3)CC2)c(Cl)c1 [compound 141]
O=C(NCc1ccc(Cl)cc1Cl)c1cnc(N2CCN(C3CCN(Cc4ccc([N+](=O)[O-])cc4)CC3)CC2)c(Cl)c1 [compound 142]
CC1CC(N2CCN(c3ncc(C(=O)NCc4ccc(Cl)c(Cl)c4)cc3Cl)CC2)CCN1Cc1ccc(C#N)cc1 (stereo not drawn) [compound 143]
O=C(NCc1ccc(F)c(Cl)c1)c1cnc(N2CCN(C3CCN(Cc4ccc(F)cc4)CC3)CC2)c(Cl)c1 [compound 144]
N#Cc1ccc(CN2CCC(N3CCN(c4ncc(C(=O)NCc5ccc(Cl)c(Cl)c5)cc4Br)CC3)CC2)cc1 [compound 145]
CC[C@H]1CN(c2ncc(C(N)=O)cc2Cl)CCN1C1CCN(C(=O)c2ccc(Cl)cc2N2CCOC2=O)CC1 [compound 146]
O=C(NCc1ccc(Cl)c(Cl)c1)c1cnc(N2CCN(C3CCN(Cc4ccc(F)c(F)c4)CC3)CC2)c(Cl)c1 [compound 147]
O=C(NCc1cccc(Cl)c1)c1cnc(N2CCN(C3CCN(Cc4ccc([N+](=O)[O-])cc4)CC3)CC2)c(Cl)c1 [compound 148]
O=C(NCc1ccc(Cl)cc1Cl)c1cnc(N2CCN(C3CCN(Cc4ccc(Cl)cc4)CC3)CC2)c(Cl)c1 [compound 149]
O=C(NCc1ccc(F)c(Cl)c1)c1cnc(N2CCN(C3CCN(Cc4ccc(Cl)cc4)CC3)CC2)c(Cl)c1 [compound 150]
O=C(NCc1ccc(Cl)cc1)c1cnc(N2CCN(C3CCN(Cc4ccc(F)cc4)CC3)CC2)c(Cl)c1 [compound 151]
C[C@@H]1CN(c2ncc(C(=O)NCc3ccc(F)c(F)c3)cc2Cl)CCN1C1CCN(Cc2ccc(Cl)cc2)CC1 [compound 152]
O=C(NCc1ccc(Cl)cc1)c1cnc(N2CCN(C3CCN(Cc4ccc([N+](=O)[O-])cc4)CC3)CC2)c(Cl)c1 [compound 153]
O=C(NCc1ccc(F)c(Cl)c1)c1cnc(N2CCN(C3CCN(Cc4ccc(F)c(F)c4)CC3)CC2)c(Cl)c1 [compound 154]
O=C(NCc1ccc(Cl)cc1F)c1cnc(N2CCN(C3CCN(Cc4ccc([N+](=O)[O-])cc4)CC3)CC2)c(Cl)c1 [compound 155]
O=C(NCc1ccc(F)c(Cl)c1)c1cnc(N2CCN(C3CCN(Cc4ccc(Cl)c(F)c4)CC3)CC2)c(Cl)c1 [compound 156]
O=C(NCc1ccc(Cl)cc1)c1cnc(N2CCN(C3CCN(Cc4ccc(F)c(F)c4)CC3)CC2)c(Cl)c1 [compound 157]
O=C(NCc1ccc(F)c(Cl)c1)c1cnc(N2CCN(C3CCN(Cc4ccc([N+](=O)[O-])cc4)CC3)CC2)c(Cl)c1 [compound 158]
CNC(=O)c1cnc(N2CCN(C3CCN(Cc4ccc(Cl)cc4)C(C)C3)[C@@H](C)C2)c(Cl)c1 (stereo partly drawn) [compound 159]

Source: US7776862B2, “Pyridyl and phenyl substituted piperazine-piperidines with CXCR3 antagonist activity” (Schering Corporation, priority 2005, dated 2010)
